This is an account of results in PubChem BioAssay AID365 (MTDP, 2006).

Each structure is given as a SMILES string. pIC50: −log10 of the molar value. Active and inactive are the calls of the source. The rule behind the calls is not given here.

For this experiment, the target named is Ribonuclease HI (Escherichia coli (strain K12)) (UniProt P0A7Y4). The experiment can be described thus: inhibition of bacterial ribonuclease H activity – biochemical, FRET RNA/DNA duplex cleavage, dose response (AID 365). Conditions: E. coli RNase H, FRET RNA/DNA cleavage fluorescence.
Ribonuclease HI (Escherichia coli (strain K12)), sequence (P0A7Y4 whole entry, looked up): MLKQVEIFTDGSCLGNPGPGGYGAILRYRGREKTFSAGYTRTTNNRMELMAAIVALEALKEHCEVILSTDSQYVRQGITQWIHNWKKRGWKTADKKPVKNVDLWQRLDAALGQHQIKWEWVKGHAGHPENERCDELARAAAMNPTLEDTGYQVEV
Consider `NCC[Se][Se]CCN`, for which the IC50 (as a rule, the concentration that inhibits the measured activity by half) is > 100 µM (inactive).
Same read-out and setting: in the case of `Cc1cc(=O)c2c(O)c3c(O)cc(O)c4c5c(O)cc(O)c6c(O)c7c(=O)cc(C)c8c1c2c(c34)c(c65)c78` it was “inactive”; in that of `O=C1c2ccccc2C(=O)c2c(NC3CCCCC3)ccc(Nc3ccc(S(=O)(=O)O)cc3)c21`, “inactive”; in that of `C=C/C(C)=C/C[C@]1(C)[C@H](C)CC[C@@]23C(=C[C@H](OC(=O)c4ccc(O)c(OC)c4)C[C@@H]12)[C@@H](OC(C)=O)O[C@H]3OC(C)=O`, “inactive”.
Take `c1ccc(C(c2cccc3c2ccc2ccccc23)C(c2ccccc2)c2cccc3c2ccc2ccccc23)cc1` (stereo not given): the pIC50 (as a rule, the IC50 on a negative log10 scale, so that one unit is a factor of ten) was 5.12.
Turning to `COC(=O)c1cc2cc3cc4cc(CC(=O)O)c(C(=O)/C=C(\O)c5ccccc5O)c(OC)c4c(OC)c3c(O)c2c(=O)o1`, the IC50 result is “inactive”.
On the same count and under the same terms, in the case of `COC([CH2][Hg][n]1cnc2c1c(=O)n(C)c(=O)n2C)CN1C(=O)c2ccccc2S1(=O)=O` (stereo not given) it was “inactive”.
For `O=C1NC(=S)N(c2ccc(Cl)cc2)C(=O)/C1=C\C=C\c1ccccc1[N+](=O)[O-]`, the pIC50 was 5.06.
As to `C[C@]12Cc3cnc(-c4ccccc4)nc3C[C@@H]1CC[C@@H]1[C@@H]2CC[C@@]2(C)[C@H]1CC[C@]2(C)O`, the IC50 result is “inactive”.
For the molecule `Cc1ccc(-c2c(C#N)c(SCC(=O)c3ccc(O)c(O)c3)nc3c2CCCC3)o1`, the pIC50 was 6.70.
As to `COc1ccc2c(c1)N(C(=O)CN1C(=O)c3ccccc3C1=O)C(C)(C)c1ssc(=S)c1-2`, the IC50 entry was “inactive”.
In the case of `COc1ccc(N2C(=O)/C(=C\c3cn(CC(=O)Nc4ccccc4)c4ccccc34)C(=O)NC2=S)cc1`, the pIC50 is 5.66.
The same measure, in the same setting: for `O=C(O)CCc1c2ccc(=O)c(O)c-2oc2c(O)c(O)ccc12` the value was 5.82.
As to `Cc1c(O)c(Br)c(C)c(O)c1Br` (tested in a mixture with another compound), the IC50 was > 100 µM (inactive).
Regarding `CC(C)OC(=O)c1cc(O)c(O)c(O)c1`, the IC50 is > 100 µM (inactive).
As for `CC(C)=CCc1ccc(O)c(=O)cc1C(C)C`, the negative logarithm of the IC50 (pIC50) was 4.00.
Consider `COC(=O)c1c(N)sc(C(=O)Nc2ccc(OC)cc2)c1C`, for which the IC50 entry was “inactive”.
As to `O=C1C(Cl)=C(Nc2ccc(S(=O)(=O)Nc3ccccn3)cc2)C(=O)c2ccccc21`, the pIC50 was 4.10.
In the case of `O=C1C(Cl)=C/C(=N\S(=O)(=O)c2ccccc2)C(Cl)=C1Cl`, the IC50 result was “inactive”.
On to `O=C(CSc1nc2ccccc2s1)c1sc2sc3ccccc3[n+]2c1[O-]`, for which the pIC50 was 6.22.
Turning to `COc1c(OC)c(O)c2c(=O)cc(-c3ccc(O)c(O)c3)oc2c1OC`, the IC50 result was “inactive”.
With `COc1ccc(C2COc3cc(O)c(O)cc3C2)cc1` (stereo not given), the IC50 result is “inactive”.
Take `Cc1cc(Cl)ccc1OCC(=O)Nc1sc(C)c(C)c1C(N)=O`: the pIC50 was 5.92.
As to `O=C(N/N=C/c1ccc(/C=N/NC(=O)c2ccc(O)c(O)c2)cc1)c1ccc(O)c(O)c1`, the pIC50 was 5.68.
On the same count and under the same terms, for `CC(C)=CCC/C(C)=C/Cc1cc(/C=C/c2cc(O)c(C/C=C(\C)CCC=C(C)C)c(O)c2)cc(O)c1O` the value was 5.77; for `O=C(Oc1ccccc1)Oc1c(Cl)cc2oc(=O)sc2c1Cl`, 5.11.
Still for that read-out and setting: for `O=C1NC(=S)N(c2ccccc2F)C(=O)C1=Cc1ccco1` the value was 5.96.
With `Cc1ccc(C)n1-c1ccc(O)c(C(=O)O)c1`, the IC50 was > 100 µM (inactive).
As for `Cc1ccc(C(=O)NC(=S)Nc2ccc(-c3nc4ccccc4s3)cc2)cc1[N+](=O)[O-]`, the pIC50 was 5.43.
Regarding `Oc1ccc(/C=N/Nc2nncc(-c3ccccc3)n2)c(O)c1O`, the pIC50 was 5.15.
Take `Cc1sc(NC(=O)C2CCCO2)c(C(N)=O)c1C` (stereo not given): the IC50 is > 100 µM (inactive).
Still for that read-out and setting: for `CN(C)CS/C(N)=N/C(O)C(Cl)(Cl)Cl` (stereo not given) the value was “inactive”; for `Cc1cc(O)c2c(c1O)C(=O)c1cccc(O)c1C2=O`, > 100 µM (inactive); for `O=C1O/C(=C(/C(=O)O)c2ccc(O)cc2)C(O)=C1c1cc2c3c(c(O)cc(C4=C(O)/C(=C(\C(=O)O)c5ccc(O)cc5)OC4=O)c3c1)OC2=O`, “inactive”.
Still for that read-out and setting: in the case of `O=C1C=C(NCCc2cc(Br)c(O)c(Br)c2)C(=O)c2ncccc21` it was “inactive”.
`Cc1sc(NC(=O)c2ccc(Br)o2)c(C(N)=O)c1C`: the pIC50 was 5.40.
In the case of `O=C1C=CC2=C3c4cc(O)c(O)cc4CC3(O)COC2=C1O` (stereo not given), the IC50 result is “inactive”.
Regarding `O=C1C(Cl)=C(NC(=O)c2ccccc2)C(=O)C(Cl)=C1NC(=O)c1ccccc1`, the IC50 is > 100 µM (inactive).
Take `O=C1/C(=C\c2ccc(O)c(O)c2)SC(=S)N1c1cccc(Cl)c1`: the pIC50 was 5.54.
For the molecule `O=C1c2ccccc2C(=O)N1c1ccc(-c2nc3ccc(N4C(=O)c5ccccc5C4=O)cc3[nH]2)cc1`, the pIC50 was 5.30.
Regarding `O=C1c2ccccc2C(=O)c2c(O)c(O)cc(O)c21`, the IC50 result is “inactive”.
On to `C=C(CCC(C(=O)O)C1CCC2(C)C3=C(CCC12C)C1(C)CCC(O)C(C)(C)C1CC3)C(C)C` (stereo not given), for which the pIC50 is 5.05.
Take `Nc1nc(Sc2ccc([N+](=O)[O-])c3nonc23)c2[nH]cnc2n1`: the IC50 is > 100 µM (inactive).
In the case of `N#C/C(=C\Nc1ccc(S(=O)(=O)Nc2nccs2)cc1)c1nc(-c2ccc(Cl)cc2)cs1`, the pIC50 is 5.92.
On to `Nc1ccc(S(=O)(=O)O)c2cccc(O)c12`, for which the IC50 entry is “inactive”.
Turning to `N#Cc1c(N)nc(SCC(=O)c2ccc(O)c(O)c2)c(C#N)c1-c1ccc(O)cc1`, the pIC50 was 5.77.
The same measure, in the same setting: for `Cc1sc2nc(-c3ccc([N+](=O)[O-])cc3)[nH]c(=O)c2c1C` the value was 5.80; for `O=C1C=C/C(=N\S(=O)(=O)c2cc(Cl)ccc2Cl)C=C1Cl`, 5.15.
Regarding `C=CC1=C(C)C2=NC1=CC1=NC(=CC3=C(C)C4=C(O)C(C(=O)OC)C(=C5NC(=C2)C(C)C5CCC(=O)OC/C=C(\C)CCCC(C)CCCC(C)CCCC(C)C)C4=N3)C(CC)=C1C` (stereo not given), the IC50 was > 100 µM (inactive).
On the same count and under the same terms, in the case of `Oc1ccc2ccccc2c1C=NCc1c(O)ccc2ccccc12` it was “inactive”; in that of `CCOc1ccc(NC(=O)c2c(NC(=O)c3ccco3)sc3c2CCCCC3)cc1`, “inactive”.
`COc1ccc(N2C(=O)/C(=C/c3ccc(I)o3)C(=O)NC2=S)cc1`: the pIC50 is 5.52.
For the molecule `CC(C)=Cc1cc(CCC/C(C)=C/Cc2c(O)cc(C)c(C(=O)O)c2O)co1`, the IC50 result is “inactive”.
Same read-out and setting: in the case of `Oc1cc(O)c2c(c1)OC(c1ccc(O)c(O)c1)C(OC1(c3cc(O)c(O)c(O)c3)Oc3cc(O)cc(O)c3C(O)C1O)C2` (stereo not given) it was > 100 µM (inactive).
For `CC1=NN(c2ccc(S(N)(=O)=O)cc2)C(=O)/C1=C/c1ccc(-c2ccc(Cl)cc2Cl)o1`, the pIC50 was 5.05.
Take `CCOc1ccc(N2C(=O)/C(=C/c3ccc(I)o3)C(=O)NC2=S)cc1`: the pIC50 was 5.62.
For the molecule `O=[N+]([O-])c1ccc2c(N=Nc3ccc4ccccc4c3O)c(O)cc(S(=O)(=O)O)c2c1`, the pIC50 is 5.52.
Still for that read-out and setting: for `Cc1ccc(S(=O)(=O)N=C2C=CC(=O)C=C2)c(C)c1` the value was 5.11.
Same read-out and setting: in the case of `COc1cccc(-c2nc3cc(NC(=O)/C=C\c4ccccc4)ccc3o2)c1` it was 5.43.
On to `O=C1NC(=S)N(c2ccccc2F)C(=O)/C1=C/c1ccc(OCc2cccc(C(=O)O)c2)cc1`, for which the IC50 entry is “inactive”.
